These results are taken from patent publication US9433593B1, “Composition for anti-inflammation containing 5-adamantan-1-yl-N-(2,4-dihydroxy-benzyl)-2,4-dimethoxy-benzamide” (Amorepacific Corporation, priority 2015, dated 2016).

In general, cell viability refers to a per cent measure of how many cells are alive, often set against a control. A higher cell viability goes with better survival.

One data set relates to iNOS. In words: LPS-induced iNOS expression (RT-PCR). It counts as cell-based, murine. Particulars: RAW 264.7 cells, pretreated at different concentrations, LPS 4 hours. The method, then: (§1) The expression level of iNOS, COX-2 and IL-1β which are known as inflammation-inducing factors was measured.
(§2) In order to investigate the effect of 5-adamantan-1-yl-N-(2,4-dihydroxybenzyl)-2,4-dimethoxybenzamide on inhibition of iNOS, COX-2 and IL-1β expression in RAW 264.7 cells, the cells were pretreated with 5-adamantan-1-yl-N-(2,4-dihydroxybenzyl)-2,4-dimethoxybenzamide at different concentrations and then RT-PCR was conducted after treating with LPS for 4 hours.

Data set [1] has as its system NO production in RAW 264.7 cells. Nature of the data set: NO production in LPS-treated cells (Griess test). It counts as cell-based, murine. Conditions: 0-30 μM for 30 minutes, then LPS (1 μg/mL) 24 hours, vs group treated only with LPS. Here is the method: (§3) RAW 264.7 cells (murine macrophage cell line) (ATCC, Rockville, Md., USA) and HEK 293 cells were cultured in RPMI 1640 medium supplemented with FBS (10% heat-inactivated fetal bovine serum; Gibco, Grand Island, N.Y., USA), glutamine and antibiotics (penicillin and streptomycin) at 37° C. under 5% CO2.
(§4) RAW 264.7 cells (1×10^6 cells/well) that had been preincubated for 18 hours were treated with 5-adamantan-1-yl-N-(2,4-dihydroxybenzyl)-2,4-dimethoxybenzamide (hereinafter, ‘AP736’) at concentrations of 0-30 μM for 30 minutes and then incubated for 6 hours or 24 hours with LPS (1 μg/mL). The supernatant was recovered after the incubation. The cells incubated for 6 hours were subjected to PGE2 analysis and those incubated for 24 hours were subjected to NO analysis. The NO concentration in the culture medium was measured by the Griess test (Promega, Madison, Wis., USA). And, the concentration of PGE2 released to the culture medium was measured using an EIA kit (Amersham, Little Chalfont, Buckinghamshire, UK).

The test system of the next data set is AP-1. Nature of the data set: AP-1 luciferase reporter gene assay. It counts as cell-based. Particulars: HEK 293 cells, AP-1-Luc, MyD88 or TRIF cotransfected, 8 hours. The method, then: as §3
(§5) The activity of transcription factors can be tested by the luciferase reporter gene assay. It is known that the activity of NF-κB and AP-1 is induced by the TLR adapter protein. NF-κB and AP-1 are known to produce the inflammatory factors NO and PGE2.
(§6) HEK 293 cells (1×10^6 cells/well) were cotransfected with 1 μg of a plasmid containing NF-κB-Luc (luciferase) and AP-1-Luc constructs. The transfection was conducted on a 12-well plate by the PEI method. After 48 hours, the transformed cells were used for experiment. MyD88 or TRIF (1 μg/mL each), which are known as TLR adapter proteins, were cotransfected for 8 hours together with 5-adamantan-1-yl-N-(2,4-dihydroxybenzyl)-2,4-dimethoxybenzamide (5-adamantan-1-yl-N-(2,4-dihydroxybenzyl)-2,4-dimethoxybenzamide is denoted as ‘AP736’ in FIG. 5). The luciferase reporter gene assay was performed using the luciferase assay system (Promega, Madison, Wis.).
For orientation: In a reporter assay the amount or activity of a reporter protein is the signal.

Data set [2] deals with PGE2 production in RAW 264.7 cells. Nature of the data set: PGE2 production in LPS-treated cells (EIA kit). It counts as cell-based, murine. Particulars: 0-30 μM for 30 minutes, then LPS (1 μg/mL) 6 hours, vs group treated only with LPS. Here is the method:
as §3, §4

The subject of the next data set is COX-2. Nature of the data set: LPS-induced COX-2 expression (RT-PCR). Format: cell-based, murine. Conditions: RAW 264.7 cells, pretreated at different concentrations, LPS 4 hours. Here is the method: as §1, §2
Another data set has as its system IL-1β. In words: LPS-induced IL-1β expression (RT-PCR). Format: cell-based, murine. Particulars: RAW 264.7 cells, pretreated at different concentrations, LPS 4 hours. The method, then: as §1, §2
In a further data set the test system is RAW 264.7 cells. In words: Cytotoxicity by MTT method. It counts as cell-based. Here is the method:
as §3
In all experiments, the cells were detached with a cell scraper. When the cells were cultured to a density of 2×10^6 cells/mL, the ratio of dead cells was 1% or lower (determined by the trypan blue dye exclusion method)
During subculturing, RAW 264.7 cells were plated on a well plate to a concentration of 1×10^6 cells/well. After culturing for 18 hours, the cells were treated with 5-adamantan-1-yl-N-(2,4-dihydroxybenzyl)-2,4-dimethoxybenzamide (denoted as ‘AP736’ in FIG. 1) at concentrations of 0-30 μM. Then, the cells were cultured in an incubator for 8 hours or 24 hours. Cytotoxicity was evaluated by the commonly used MTT method. 3 hours before the last culturing, 10 μL of an MTT (3-[4,5-dimethylthiazol-2-yl]-2,5-diphenyltetrazolium bromide) solution (10 mg/mL in phosphate-buffered saline, pH 7.4) was added to each well. After terminating reaction by adding 15% SDS (sodium dodecyl sulfate) to each well, the formed formazan crystals were dissolved. Then, absorbance was measured at 570 nm on a microplate reader.
A general note: Tetrazolium assays rely on reduction of a dye to a coloured formazan, in cell work by metabolically active cells.

The subject of a further data set is NF-κB. Nature of the data set: NF-κB luciferase reporter gene assay. Format: cell-based. Particulars: HEK 293 cells, NF-κB-Luc, MyD88 or TRIF cotransfected, 8 hours. The method, then:
as §3, §5, §6

`COc1cc(OC)c(C23CC4CC(CC(C4)C2)C3)cc1C(=O)NCc1ccc(O)cc1O` [5-adamantan-1-yl-N-(2,4-dihydroxybenzyl)-2,4-dimethoxybenzamide]: the “expression of the mRNAs and proteins of iNOS induced by LPS” value in the data set with iNOS is “distinctly inhibited”. The NO production result in data set [1] is “statistically significant decrease in NO production with increasing concentration”. For the same compound, the “activity of AP-1” value with AP-1 is listed as “decreased activity”. The “concentration of PGE2” value in data set [2] is “decreased as compared to the group treated only with LPS with increasing concentration”. Further, the “expression of the mRNAs and proteins of COX-2 induced by LPS” value with COX-2 is “distinctly inhibited”. The “expression of the mRNAs and proteins of IL-1β induced by LPS” value in the data set on IL-1β is listed as “distinctly inhibited”. The cell viability in the data set with RAW 264.7 cells (10 μM, treated for 8 hours) is given as 100%; in the data set with RAW 264.7 cells (10 μM, treated for 24 hours) it was 100%; with RAW 264.7 cells (20 μM, treated for 8 hours) it was 100%; with RAW 264.7 cells (20 μM, treated for 24 hours) it was 100%; with RAW 264.7 cells (30 μM, cultured for 24 hours), approximately 80%. For the same compound, the “activity of NF-κB” value with NF-κB is “decreased activity”.
